For one assay, the system named is PC-3. The experiment in a line: Antiproliferative activity against human PC3 cells after 72 hrs by CellTiter96 AQueous nonradioactive cell proliferation assay. The assay is classed as functional, cell-based. The following applies: PC-3, 72 h.
For another assay, the system named is RAW264.7. The experiment in a line: Antiproliferative activity against mouse RAW264.7 cells after 18 hrs by CellTiter96 AQueous nonradioactive cell proliferation assay. The following applies: RAW264.7, 18 h. In kind it is cell-based.
A further assay concerns NCI/ADR-RES. The experiment in a line: Antiproliferative activity against human NCI-ADR-RES cells after 48 hrs by SRB assay. In kind it is functional, cell-based. (In general: Sulforhodamine B stains cellular protein and so reports cell mass.)
For the next assay, the system named is A-375. The experiment in a line: Antiproliferative activity against human A375 cells after 72 hrs by CellTiter96 AQueous nonradioactive cell proliferation assay. In kind it is functional, cell-based. The following applies: A-375, 72 h.
A further assay deals with SK-MEL-2. The experiment in a line: Antiproliferative activity against human SK-MEL-2 cells after 72 hrs by CellTiter96 AQueous nonradioactive cell proliferation assay. In kind it is functional, cell-based. The following applies: SK-MEL-2, 72 h.
The next assay relates to ACHN. The assay can be described thus: Antiproliferative activity against human ACHN cells after 72 hrs by CellTiter96 AQueous nonradioactive cell proliferation assay. The assay is classed as functional, cell-based.
Assay [1] concerns NCI-H460. The assay can be described thus: Antiproliferative activity against human NCI-H460 cells after 72 hrs by CellTiter96 AQueous nonradioactive cell proliferation assay. The following applies: NCI-H460, 72 h. The assay is classed as functional, cell-based.
The next assay concerns UACC-62. The assay can be described thus: Antiproliferative activity against human UACC62 cells after 72 hrs by CellTiter96 AQueous nonradioactive cell proliferation assay. In kind it is functional, cell-based. The following applies: UACC-62, 72 h.
A further assay concerns SF-295. The experiment in a line: Antiproliferative activity against human SF295 cells after 72 hrs by CellTiter96 AQueous nonradioactive cell proliferation assay. In kind it is functional, cell-based. The following applies: SF-295, 72 h.
The next assay concerns M14. The assay can be described thus: Antiproliferative activity against human M14 cells after 72 hrs by CellTiter96 AQueous nonradioactive cell proliferation assay. In kind it is functional, cell-based. The following applies: M14, 72 h.
A further assay deals with SR. The assay can be described thus: Antiproliferative activity against human SR cells after 48 hrs by SRB assay. In kind it is functional, cell-based.
Assay [2] is described as follows: Antiproliferative activity against human NCI60 cells after 48 hrs by SRB assay. The following applies: NCI60, 48 h. In kind it is functional, cell-based.
Assay [3] is filed under the species Sus scrofa. The assay can be described thus: Inhibition of pig brain tubulin polymerization measured every 1 min for 60 mins.
For assay [4], the system named is NCI-H460. The experiment in a line: Induction of apoptosis in human NCI-H460 cells upto 100 uM assessed as increase in caspase3/7 activity after 24 hrs by Caspase-Glo 3/7 assay relative to control. In kind it is functional.
The next assay has as its system HCC 2998. The assay can be described thus: Antiproliferative activity against human HCC2998 cells after 48 hrs by SRB assay. The following applies: HCC 2998, 48 h. The assay is classed as functional, cell-based.
Assay [5] concerns NCI-H460. The assay can be described thus: Cell cycle arrest in human NCI-H460 cells assessed as accumulation at G2/M phase at 1.5 uM measured after 6 to 24 hrs in the presence of RNase A by propidium iodide staining-based flow cytometry analysis. The assay is classed as functional. A general note: A flow cytometer gives signals particle by particle.
The test system of the next assay is MDA-MB-435. The experiment in a line: Antiproliferative activity against human MDA-MB-435 cells after SRB assay. The assay is classed as functional, cell-based.
For assay [6], the species on record is Sus scrofa. The assay can be described thus: Displacement of vincristine from vinca alkaloid binding site of pig brain tubulin up to 100 uM by LC-MS analysis.
Assay [7] has as its system NCI-H460. The assay can be described thus: Induction of necrosis in human NCI-H460 cells upto 100 uM assessed as increase in LDH levels after 24 hrs by CytoTox 96 nonradioactive cytotoxicity assay. The assay is classed as functional, cell-based.
For assay [8], the species on record is Sus scrofa. The assay can be described thus: Displacement of colchicine from colchicine-binding site of pig brain tubulin up to 100 uM by LC-MS analysis.
Another assay has as its system Malme-3M. The experiment in a line: Antiproliferative activity against human MALME-3M cells after 48 hrs by SRB assay. In kind it is functional, cell-based.

The source made the active and inactive calls. The calls are words filed in the database; no cut-off is given here.

For `CC(=O)O[C@H]1C(=O)[C@@]2(C)[C@H]([C@H](OC(=O)c3ccccc3)[C@]3(O)C[C@H](OC(=O)[C@H](O)[C@@H](NC(=O)c4ccccc4)c4ccccc4)C(C)=C1C3(C)C)[C@]1(OC(C)=O)CO[C@@H]1C[C@@H]2O` [PACLITAXEL], the half-inhibitory concentration (IC50) in the assay on PC-3 was 0.004 µM; in the assay on RAW264.7 it was greater than 5 µM; in the assay on NCI/ADR-RES, greater than 10 µM; with A-375, 0.01 µM; in the assay with SK-MEL-2 it was 0.009 µM; in the assay on ACHN it was 0.066 µM. Also, the concentration for half-maximal inhibition (IC50) in the assay on NCI-H460 [1] is 0.01 µM; with UACC-62, 0.006 µM; with SF-295, 0.056 µM; in the assay with M14, 0.007 µM.
Turning to `C=CC[C@H]1C[C@]2([C@@H](C)Cc3ccc(OC)c(OC)c3)OCOC2=CC1=O`, the half-inhibitory concentration (IC50) with PC-3 is 0.49 µM; in the assay on RAW264.7, greater than 5 µM; in the assay on NCI/ADR-RES, 0.17 µM; in the assay on SR, less than 0.1 µM; in [2], 0.27 µM; with A-375, 0.075 µM. In addition, the IC50 with SK-MEL-2 stood at 0.095 µM; in the assay on ACHN it was 0.36 µM; in the assay on NCI-H460 [1], 0.26 µM; with UACC-62, 0.044 µM; in the assay on SF-295, 0.25 µM; in the assay with HCC 2998 it was 1.41 µM. The half-maximal inhibitory concentration (IC50) is less than 0.1 µM in the assay with MDA-MB-435, 0.064 µM in the assay on M14 and less than 0.1 µM in the assay with Malme-3M. Also, the inhibition result in the assay listed under Sus scrofa [3] was “Dose-dependent effect”. Also, the “fold change (FC)” value in the assay with NCI-H460 [4] turned out to be 2.5. Besides, the result in the assay on NCI-H460 [5] and in the assay with NCI-H460 [7] was Active. Also, the inhibition entry in the assay filed under Sus scrofa [6] is “inactive”. Further, the inhibition result in the assay filed under Sus scrofa [8] was “Active”.

A word on the IC50: it is the concentration needed to halve the response being measured.
